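Interpolation was linear, between the two tested concentrations surrounding the appropriate level; five concentrations were tested over 48 hours in 96-well plates. Abbreviation: GI50, concentration required for 50% inhibition of growth.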 The source made the active and inactive calls. Rule as the data show it: active = GI50 up to about 1.1 µM and inactive = higher.
How the values were obtained:
Assay in all cases: NCI tumour cell line growth inhibition, 48 h
786-0 = tested on: 786-0
A498 = tested on: A498
A549 = tested on: A549
ACHN = tested on: ACHN
BT-549 = tested on: BT-549
CAKI-1 = tested on: CAKI-1
CCRF-CEM = tested on: CCRF-CEM
COLO 205 = tested on: COLO 205
DU-145 = tested on: DU-145
EKVX = tested on: EKVX
HCC 2998 = tested on: HCC 2998
HCT-116 = tested on: HCT-116
HCT-15 = tested on: HCT-15
HL-60 = tested on: HL-60
HOP-62 = tested on: HOP-62
HOP-92 = tested on: HOP-92
HT-29 = tested on: HT-29
Hs-578T = tested on: Hs-578T
IGROV-1 = tested on: IGROV-1
K562 = tested on: K562
KM12 = tested on: KM12
LOX IMVI = tested on: LOX IMVI
M14 = tested on: M14
MCF7 = tested on: MCF7
MDA-MB-231 = tested on: MDA-MB-231
MDA-MB-435 = tested on: MDA-MB-435
MDA-N = tested on: MDA-N
MOLT-4 = tested on: MOLT-4
Malme-3M = tested on: Malme-3M
NCI-H226 = tested on: NCI-H226
NCI-H23 = tested on: NCI-H23
NCI-H460 = tested on: NCI-H460
NCI-H522 = tested on: NCI-H522
NCI/ADR-RES = tested on: NCI/ADR-RES
OVCAR-3 = tested on: OVCAR-3
OVCAR-4 = tested on: OVCAR-4
OVCAR-5 = tested on: OVCAR-5
OVCAR-8 = tested on: OVCAR-8
PC-3 = tested on: PC-3
RXF 393 = tested on: RXF 393
SF-268 = tested on: SF-268
SF-295 = tested on: SF-295
SF-539 = tested on: SF-539
SK-MEL-28 = tested on: SK-MEL-28
SK-MEL-2 = tested on: SK-MEL-2
SK-MEL-5 = tested on: SK-MEL-5
SK-OV-3 = tested on: SK-OV-3
SN12C = tested on: SN12C
SNB-19 = tested on: SNB-19
SNB-75 = tested on: SNB-75
SR = tested on: SR
SW-620 = tested on: SW-620
T47D = tested on: T47D
TK-10 = tested on: TK-10
U-251 = tested on: U-251
UACC-257 = tested on: UACC-257
UACC-62 = tested on: UACC-62
UO-31 = tested on: UO-31
RPMI-8226 = tested on: RPMI-8226

Q: Which results are given for `O=C1CC2OCC=C3CN4CCC5(C(=O)O)C(N1)C2C3CC45` (stereo unspecified)?
A: GI50 (786-0): > 100 µM (inactive); GI50 (A498): > 100 µM (inactive); GI50 (A549): > 100 µM (inactive); GI50 (ACHN): > 100 µM (inactive); GI50 (BT-549): > 100 µM (inactive); GI50 (CAKI-1): > 100 µM (inactive); GI50 (CCRF-CEM): > 100 µM (inactive); GI50 (COLO 205): > 100 µM (inactive); GI50 (DU-145): > 100 µM (inactive); GI50 (EKVX): > 100 µM (inactive); GI50 (HCC 2998): > 100 µM (inactive); GI50 (HCT-116): > 100 µM (inactive); GI50 (HCT-15): > 100 µM; GI50 (HL-60): > 100 µM (inactive); GI50 (HOP-62): > 100 µM (inactive); GI50 (HOP-92): > 100 µM (inactive); GI50 (HT-29): > 100 µM (inactive); GI50 (Hs-578T): > 100 µM (inactive); GI50 (IGROV-1): > 100 µM (inactive); GI50 (K562): > 100 µM (inactive); GI50 (KM12): > 100 µM (inactive); GI50 (LOX IMVI): > 100 µM (inactive); GI50 (M14): > 100 µM (inactive); GI50 (MCF7): > 100 µM (inactive); GI50 (MDA-MB-231): > 100 µM (inactive); GI50 (MDA-MB-435): > 100 µM (inactive); GI50 (MDA-N): > 100 µM (inactive); GI50 (MOLT-4): > 100 µM (inactive); GI50 (Malme-3M): > 100 µM (inactive); GI50 (NCI-H226): > 100 µM (inactive); GI50 (NCI-H23): > 100 µM (inactive); GI50 (NCI-H460): > 100 µM (inactive); GI50 (NCI-H522): > 100 µM (inactive); GI50 (NCI/ADR-RES): > 100 µM (inactive); GI50 (OVCAR-3): > 100 µM (inactive); GI50 (OVCAR-4): > 100 µM (inactive); GI50 (OVCAR-5): > 100 µM (inactive); GI50 (OVCAR-8): > 100 µM (inactive); GI50 (PC-3): > 100 µM (inactive); GI50 (RXF 393): > 100 µM (inactive); GI50 (SF-268): > 100 µM (inactive); GI50 (SF-295): > 100 µM (inactive); GI50 (SF-539): > 100 µM (inactive); GI50 (SK-MEL-28): > 100 µM (inactive); GI50 (SK-MEL-2): > 100 µM (inactive); GI50 (SK-MEL-5): > 100 µM (inactive); GI50 (SK-OV-3): > 100 µM (inactive); GI50 (SN12C): > 100 µM (inactive); GI50 (SNB-19): > 100 µM (inactive); GI50 (SNB-75): > 100 µM (inactive); GI50 (SR): > 100 µM (inactive); GI50 (SW-620): > 100 µM (inactive); GI50 (T47D): > 100 µM (inactive); GI50 (TK-10): > 100 µM (inactive); GI50 (U-251): > 100 µM (inactive); GI50 (UACC-257): > 100 µM (inactive); GI50 (UACC-62): > 100 µM (inactive); GI50 (UO-31): > 100 µM (inactive)

Q: For `CC(C)=CC[S+]([O-])c1ccccc1NC1=CC(=O)CC(C)(C)C1` (stereo unspecified), which GI50 (786-0) is on record?
A: The GI50 was > 100 µM (inactive).

Q: What about the GI50 (A498) of the same molecule?
A: Its GI50 is > 100 µM (inactive).

Q: And the GI50 (A549)?
A: Its GI50 is > 100 µM (inactive).

Q: What about the GI50 (ACHN) of the same molecule?
A: Its GI50 is > 100 µM (inactive).

Q: And the GI50 (BT-549)?
A: Its GI50 is > 100 µM (inactive).

Q: And the GI50 (CAKI-1)?
A: The GI50 was > 100 µM (inactive).

Q: And the GI50 (CCRF-CEM)?
A: Its GI50 is > 100 µM (inactive).

Q: What about the GI50 (COLO 205) of the same molecule?
A: Its GI50 is > 100 µM (inactive).

Q: What about the GI50 (DU-145) of the same molecule?
A: Its GI50 is > 100 µM (inactive).

Q: And the GI50 (EKVX)?
A: The GI50 was > 100 µM (inactive).

Q: What about the GI50 (HCC 2998) of the same molecule?
A: The GI50 was > 100 µM (inactive).

Q: What about the GI50 (HCT-116) of the same molecule?
A: Its GI50 is > 100 µM (inactive).

Q: And the GI50 (HCT-15)?
A: The GI50 was 8.3 µM.

Q: And the GI50 (HL-60)?
A: Its GI50 is > 100 µM (inactive).

Q: And the GI50 (HOP-62)?
A: Its GI50 is 0.124 µM (active).

Q: What about the GI50 (HOP-92) of the same molecule?
A: The GI50 was > 100 µM (inactive).

Q: What about the GI50 (HT-29) of the same molecule?
A: The GI50 was > 100 µM (inactive).

Q: And the GI50 (Hs-578T)?
A: The GI50 was > 100 µM (inactive).

Q: And the GI50 (IGROV-1)?
A: Its GI50 is > 100 µM (inactive).

Q: What about the GI50 (K562) of the same molecule?
A: Its GI50 is > 100 µM (inactive).

Q: What about the GI50 (KM12) of the same molecule?
A: The GI50 was > 100 µM (inactive).

Q: And the GI50 (LOX IMVI)?
A: The GI50 was > 100 µM (inactive).

Q: And the GI50 (M14)?
A: Its GI50 is > 100 µM (inactive).

Q: And the GI50 (MCF7)?
A: The GI50 was > 100 µM (inactive).

Q: And the GI50 (MDA-MB-231)?
A: Its GI50 is > 100 µM (inactive).

Q: And the GI50 (MDA-MB-435)?
A: Its GI50 is > 100 µM (inactive).

Q: And the GI50 (MDA-N)?
A: Its GI50 is > 100 µM (inactive).

Q: And the GI50 (MOLT-4)?
A: Its GI50 is > 100 µM (inactive).

Q: What about the GI50 (Malme-3M) of the same molecule?
A: The GI50 was > 100 µM (inactive).

Q: What about the GI50 (NCI-H226) of the same molecule?
A: The GI50 was > 100 µM (inactive).

Q: What about the GI50 (NCI-H23) of the same molecule?
A: Its GI50 is > 100 µM (inactive).

Q: And the GI50 (NCI-H460)?
A: The GI50 was > 100 µM (inactive).

Q: And the GI50 (NCI-H522)?
A: Its GI50 is > 100 µM (inactive).

Q: What about the GI50 (NCI/ADR-RES) of the same molecule?
A: Its GI50 is > 100 µM (inactive).

Q: And the GI50 (OVCAR-3)?
A: The GI50 was > 100 µM (inactive).

Q: What about the GI50 (OVCAR-4) of the same molecule?
A: Its GI50 is > 100 µM (inactive).

Q: What about the GI50 (OVCAR-5) of the same molecule?
A: The GI50 was > 100 µM (inactive).

Q: And the GI50 (OVCAR-8)?
A: The GI50 was > 100 µM (inactive).

Q: And the GI50 (PC-3)?
A: Its GI50 is > 100 µM (inactive).

Q: And the GI50 (RPMI-8226)?
A: Its GI50 is > 100 µM (inactive).

Q: And the GI50 (RXF 393)?
A: Its GI50 is > 100 µM (inactive).

Q: What about the GI50 (SF-268) of the same molecule?
A: The GI50 was > 100 µM (inactive).

Q: And the GI50 (SF-539)?
A: Its GI50 is > 100 µM (inactive).

Q: And the GI50 (SK-MEL-28)?
A: The GI50 was > 100 µM (inactive).

Q: And the GI50 (SK-MEL-2)?
A: Its GI50 is > 100 µM (inactive).

Q: What about the GI50 (SK-MEL-5) of the same molecule?
A: The GI50 was > 100 µM (inactive).

Q: And the GI50 (SK-OV-3)?
A: The GI50 was > 100 µM (inactive).

Q: What about the GI50 (SN12C) of the same molecule?
A: The GI50 was > 100 µM (inactive).

Q: What about the GI50 (SNB-19) of the same molecule?
A: The GI50 was > 100 µM (inactive).

Q: And the GI50 (SNB-75)?
A: Its GI50 is > 100 µM (inactive).

Q: And the GI50 (SR)?
A: The GI50 was > 100 µM (inactive).

Q: What about the GI50 (SW-620) of the same molecule?
A: Its GI50 is > 100 µM (inactive).

Q: And the GI50 (T47D)?
A: Its GI50 is > 100 µM (inactive).

Q: And the GI50 (TK-10)?
A: Its GI50 is > 100 µM (inactive).

Q: What about the GI50 (U-251) of the same molecule?
A: The GI50 was 0.223 µM (active).

Q: And the GI50 (UACC-257)?
A: The GI50 was > 100 µM (inactive).

Q: What about the GI50 (UACC-62) of the same molecule?
A: The GI50 was > 100 µM (inactive).

Q: And the GI50 (UO-31)?
A: The GI50 was > 100 µM (inactive).
